The record followed here is patent US20040161781A1, “Compositions and methods for identifying thymidylate synthase modulators” (priority 2002, published 2004).

Entries after “also recorded” stand apart in the source; their conditions may differ. *1 amine or outer side, *2 acyl side, *3 side chain or, on linkers, in order; H or OH if unused. Where a SMILES comes first, the peptide text is derived from it. Bridges are numbered along the chain shown (N, C = ends). Roman numbers before positions name the chains, in order. [ ]: non-standard residue; d: D form. Actinocin(9to1) = Cc1c2oc3c(C)ccc(C(=O)[*:1])c3nc-2c(C(=O)[*:2])c(N)c1=O; NMeV = CN[C@H](C(=O)O)C(C)C; Sar = CNCC(=O)O

What all share (assay type): cell-based, human
Test [1] concerns thymidylate synthase (TS). As to the kind of experiment: Evaluation of TS expression by Western blotting in H630-C6 cells. How it is done:
FIGS. 4a and 4b. Evaluation of TS expression by Western blotting. […] The cells were harvested for Western blots.
This example describes the relationship between TS levels and luciferase production by various known TS inhibitors. Western blotting was performed as previously described (Dolnick and Black, 1996). Briefly, H630-C6 cells were washed with PBS and extracted with RIPA buffer. 10 μg of total protein was resolved by electrophoresis in a 10% SDS-PAGE and was blotted onto a PVDF membrane (Immobilon-P, Millipore, Bedford, Mass.). The membrane was hybridized with rabbit polyclonal antibody against TS (a gift from Dr. Edward Chu, VA Cancer Center, Yale University, West Haven, Conn.) diluted in SuperBlock Blocking Buffer (Pierce, Rockford, Ill.) plus 0.25% Tween 20 for one hour and hybridized with HRP-linked anti-rabbit secondary antibody (Jackson Laboratories) for an additional one hour. The membrane was detected with SuperSignal West Dura Extended Duration Substrate (Pierce, Rockford, Ill.) and was visualized by exposing the blot to Kodak XAR-5 film. […] The resulting signal was detected as described above.
The induction of luciferase activity depends upon the ability to reduce the amount of endogenous TS bound to the TBEs in the recombinant luciferase transcripts. Dissociation of TS from the luciferase reporter mRNA is expected to be accompanied by the removal of TS from TBEs located in other mRNAs as well, such as endogenous TS mRNA. Therefore, an increase in TS is expected to accompany the increase in luciferase. To verify whether a translational mechanism is involved we evaluated the levels of TS from cells treated with the compounds described above by Western blotting.
(In general: A western blot detects proteins with antibodies after separation by electrophoresis.)

For a further test, the system named is TS mRNA. As to the kind of experiment: Evaluation of TS mRNA expression by RT-PCR in H630-C6 cells. Particulars: 18 hr exposure. As for the experimental part:
FIGS. 5a and 5b. Evaluation of TS mRNA expression by RT-PCR. H630-C6 cells were exposed to the indicated compounds for 18 hr and total RNA was obtained for RT-PCR. Results are shown for 35 cycles of amplification. […] Similar results were obtained at lower cycles (data not shown).
This example describes the TS mRNA levels in the presence of various TS inhibitors. RNA was prepared using an RNAqueous kit (Ambion, Austin, Tex.). Reverse transcription was done using a Cells-to-cDNA kit (Ambion, Austin, Tex.). Polymerase chain reaction (PCR) was performed as described previously (Dolnick et al., 1992). Primers used for TS mRNA are 5′-TTTGGACAGCCTGGGATTCTC-3′ (Sense—SEQ ID NO:6) and 5′-AAAGCACCCTAAACAGCCATT-3′ (antisense—SEQ ID NO:7), generated a 600-bp PCR product. Primers used for β-actin are 5′-CAGCTCACCATGGATGATGATA-3′ (sense—SEQ ID NO:8) and 5′-CCA GAC GCA GGA TGG CAT-3′ (antisense—SEQ ID NO:9), generated a 543-bp PCR product. The PCR cycling condition used was: 95° C. for 30 seconds, 60° C. for 30 seconds, 72° C. for 1 minute, repeated for 25, 30 and 35 cycles (for TS) or 20, 25 and 30 cycles (for β-actin). Product formation was evaluated by ethidium bromide staining and was resolved by electrophoresis in 1.5% agarose gels.

The subject of test [2] is thymidylate synthase (TS). The test can be described thus: Luciferase assay in stably transfected H630-C6 cells (pG3E1-2TBE-Neo). The settings on record: H630-C6 cells. As for the experimental part:
FIGS. 3a-3j. RLU production in H630-C6 cells in response to TS inhibitors. H630-C6 cells were evaluated for luciferase activity in response to treatment with the indicated compounds. The cells were exposed to the compounds at the indicated concentrations for 18 hr and luciferase assays were then performed according to the manufacturer's instructions. The mean values of triplicates or quadruplicates are shown along with the standard derivations.
This example describes the stable transfection of cells with the DNA construct of the present invention. To facilitate selection of stable transformants, we added a neomycin-resistance gene to the pG3E1-2TBE (FIG. 1) to generate a new plasmid termed pG3E1-2TBE-Neo as follows. For stable transfection, pG3E1-2TBE-Neo was linearized at the ampicillin resistance gene with Ase I and was introduced into H630 cells as described above. At 24 hrs post-transfection, the cells were exposed to 400 μg/ml of G418 for two weeks. Individual clones were picked at that time and screened for their ability to induce luciferase in response to treatment with 5-FU, a known TS inhibitor. Following selection with G418 and evaluation for changes in luciferase activity after exposure of the cells to 5-FU, the cloned subline H630/pG3E1-2TBE-Neo-L1-2-C6 (H630-C6) was chosen for further study.
The stably transfected H630-C6 cell line was maintained in RPMI 1640 plus 10% dialyzed FBS and 400 μg/ml of geneticin (G418). For luciferase assays, 2×10^4 cells were seeded in each well of a 24-well plate in RPMI 1640 medium plus 10% FBS without G418 and were allowed to attach at least six hr, followed by drug exposure overnight (approximately 18 hr). The cells were then washed with PBS (137 mM NaCl, 2.7 mM KCl, 4.3 mM Na2HPO4, 1.4 mM KH2PO4, pH 7.4), lysed with Passive Lysis Buffer (Promega, Madison) and assayed for luciferase activity using the Luciferase Assay System (Promega, Madison, Wis.) according to the manufacturer's instructions. Relative light units (RLU) were measured with a Lumat LB 9501 luminometer (EG & G Berthold, Wildbad, Germany).
To test H630-C6 as a tool to identify TS modulators three different classes of compounds, i.e., specific or predominantly specific TS inhibitors, agents that inhibit folate pathways or inhibit TS as well as having other targets, and agents that act through TS unrelated sites of action were evaluated for their ability to induce changes in luciferase activity.

The subject of test [3] is thymidylate synthase (TS). As to the kind of experiment: Luciferase induction in H630 cells containing pG3E1-2TBE-Neo by acyl homoserine lactone. The settings on record: 18 h. The text has this: FIG. 7. Induction of luciferase as a function of 3-oxo-6-hexanoyl-homoserine lactone concentrations. H630 cells containing pG3E1-2TBE-Neo were exposed to the indicated concentrations of 3-oxo-6-hexanoyl homoserine lactone for 18 hrs then analyzed for luciferase activity.
FIG. 8. Comparison of 5-fluorouracil (5-FU) and 3-oxo-hexanoyl-homoserine lactone on induction of luciferase. H630 cells containing pG3E1-2TBE-Neo were exposed to the indicated concentrations of each compound for 18 hrs and analyzed for luciferase activity.
H630 cells containing pG3E1-2TBE-Neo were exposed to the indicated concentrations of 3-oxo-6-hexanoyl homoserine lactone for 18 h then analyzed for luciferase activity (FIG. 7).

Test [4] relates to thymidylate synthase (TS). As to the kind of experiment: Down-regulation of TS in H630 cells treated with acyl-homoserine lactones (Western blotting). Particulars: overnight (approximately 16 hours). The text has this: FIG. 6. A representation of the ability of acyl homoserine lactones to down-regulate TS in H630 cells.
The signaling molecules produced by the rTS signaling pathway cause a decrease in the amount of TS found in cells. These signaling molecules can simulate the effects of the compound 3-oxo-hexanoyl homoserine lactone in activating the receptor for this compound when it is present in a recombinant bacteria. […] This hypothesis was validated by the results of an experiment portrayed in FIG. 6. Accordingly, the down-regulation of TS in H630 (human colon cancer) cells treated with acyl-homoserine lactones was tested. Cells growing in RPMI 1640 culture medium, supplemented with 10% dialyzed fetal bovine serum at 37° C. in an atmosphere of 95:5 air:CO2. The compounds with the structures shown were added to the cells and allowed to incubate overnight (approximately 16 hours). The cells were extracted and TS measured by Western blotting as described. The compounds from top to bottom are: (1) 3-hydroxy butanoyl homoserine lactone, (2) butanoyl homoserine lactone; (3) 3-oxo-hexanoyl homoserine lactone; (4) d, 1-hexanoyl homoserine lactone, and (5) 1-homoserine lactone. Tubulin is shown as a loading standard.

As to `Cc1c2oc3c(C)ccc(C(=O)N[C@@H]4C(=O)N[C@H](C(C)C)C(=O)N5CCC[C@H]5C(=O)N(C)CC(=O)N(C)[C@@H](C(C)C)C(=O)O[C@@H]4C)c3nc-2c(C(=O)N[C@@H]2C(=O)N[C@H](C(C)C)C(=O)N3CCC[C@H]3C(=O)N(C)CC(=O)N(C)[C@@H](C(C)C)C(=O)O[C@@H]2C)c(N)c1=O` [Act D, actinomycin D] (I: T[dV]P[Sar][NMeV] / II: T[dV]P[Sar][NMeV]; ester I:1-I:C, II:1-II:C; linker I:N-II:N via Actinocin(9to1)), in test [1] (H630-C6 cells, 18 hr treatment), the “TS protein level by Western blotting” value was “no increase of TS protein; also recorded: did not induce TS levels”. Moreover, the “TS levels as a function of time (time course)” value in test [1] (by 24 hr, data not shown) is listed as “dropped”. The “TS mRNA level by RT-PCR” value in the test with TS mRNA is recorded as “not altered”. In addition, the increase of luciferase entry in test [2] (50 μM, 18 hr) is listed as “up to 3.5 fold”. The “change in luciferase activity (RLU), in words” value in test [2] (18 hr exposure) is recorded as “concentration-dependent increase of RLU”.

On to `CCCC(=O)CC(=O)N[C@H]1CCOC1=O` [3-oxo-hexanoyl homoserine lactone], for which the “luciferase activity as a function of concentration” value in test [3] is “increased the luciferase activity”. For the same compound, the “down-regulation of TS (Western blotting), in words” value in test [4] was “most active of all the compounds shown”.
